{"source": "patent US9278365B2", "about": "“Volatile material dispenser and method of emitting a volatile material” (priority 2014, dated 2016)", "origin": "cited, not measured here", "data": [{"units": {"log P (octanol/water partition coefficient)": "Log P", "solubility": "Log P"}, "values": [{"molecule": "CC(C=O)Cc1ccc(C(C)(C)C)cc1", "note": "(stereo not drawn) [lilial]", "log P (octanol/water partition coefficient)": 4.4}, {"molecule": "CC(=O)O[C@@H]1C[C@H]2CC[C@]1(C)C2(C)C", "note": "(racemic) [iso-bornyl acetate]", "log P (octanol/water partition coefficient)": 4.3}, {"molecule": "methy cyclopetenone", "log P (octanol/water partition coefficient)": 1.29}, {"molecule": "Cc1ncsc1CCO", "note": "[sulfurol]", "log P (octanol/water partition coefficient)": 1.11}, {"molecule": "OC/C=C/c1ccccc1", "note": "[cinnamic alcohol]", "log P (octanol/water partition coefficient)": 2}, {"molecule": "COC(=O)c1ccccc1", "note": "[methyl benzoate]", "solubility": 2.1}]}]}
